Laboratory results as given in patent US7785828B1 (priority 2003, dated 2010).

What was measured:
Format in all cases: cell-based
[1] = tested on: Fusarium graminearum
[2] = tested on: Septoria tritici
[3] = tested on: Mycosphaerella fijiensis

| Sequence | Antifungal activity, Fusarium graminearum (improvement compared to DmAMP1) [1] | Antifungal activity, Septoria tritici (improvement compared to DmAMP1) [2] | Antifungal activity, Mycosphaerella fijiensis (improvement compared to DmAMP1) [3] |
| --- | --- | --- | --- |
| NLCEKASKTWTGNCGNTKHCDTQCKSWEGAKHGACHVRSGKHKCFCYFNC (Defensin like) [L9-29] | +++ (key: + indicating 1- to 5-fold improvement compared to DmAMP1; ++ indicating >5- to 10-fold improvement; +++ indicating >10-fold improvement) | ++ (key: + indicating 1- to 5-fold improvement compared to DmAMP1; ++ indicating >5- to 10-fold improvement; +++ indicating >10-fold improvement) | ++ (key: + indicating 1- to 5-fold improvement compared to DmAMP1; ++ indicating >5- to 10-fold improvement; +++ indicating >10-fold improvement) |
| NLCEKASKTWSGNCGNTKHCDNQCRSWEGAKHGACHVRNGKHKCFCYFNC (Defensin like) [L9-23] | +++ (key: + indicating 1- to 5-fold improvement compared to DmAMP1; ++ indicating >5- to 10-fold improvement; +++ indicating >10-fold improvement) | ++ (key: + indicating 1- to 5-fold improvement compared to DmAMP1; ++ indicating >5- to 10-fold improvement; +++ indicating >10-fold improvement) | ++ (key: + indicating 1- to 5-fold improvement compared to DmAMP1; ++ indicating >5- to 10-fold improvement; +++ indicating >10-fold improvement) |
| NLCERASKTWTGNCGNTKHCDNQCKSWEGAAHGACHVRSGKHKCFCYFNC (Defensin like) [L6-39] | +++ (key: + indicating 1- to 5-fold improvement compared to DmAMP1; ++ indicating >5- to 10-fold improvement; +++ indicating >10-fold improvement) | ++ (key: + indicating 1- to 5-fold improvement compared to DmAMP1; ++ indicating >5- to 10-fold improvement; +++ indicating >10-fold improvement) | + (key: + indicating 1- to 5-fold improvement compared to DmAMP1; ++ indicating >5- to 10-fold improvement; +++ indicating >10-fold improvement) |
| NLCERASKTWSGNCGNTKHCDTQCKNWEGAAHGACHKRNGKWKCFCYFNC (Defensin like) [L9-13] | ++ (key: + indicating 1- to 5-fold improvement compared to DmAMP1; ++ indicating >5- to 10-fold improvement; +++ indicating >10-fold improvement) | + (key: + indicating 1- to 5-fold improvement compared to DmAMP1; ++ indicating >5- to 10-fold improvement; +++ indicating >10-fold improvement) | + (key: + indicating 1- to 5-fold improvement compared to DmAMP1; ++ indicating >5- to 10-fold improvement; +++ indicating >10-fold improvement) |
| NLCERASKTWSGNCGNTKHCDTQCRNWEGAAHGACHKRNGKWKCFCYFNC (Defensin like) [L6-12] | +++ (key: + indicating 1- to 5-fold improvement compared to DmAMP1; ++ indicating >5- to 10-fold improvement; +++ indicating >10-fold improvement) | + (key: + indicating 1- to 5-fold improvement compared to DmAMP1; ++ indicating >5- to 10-fold improvement; +++ indicating >10-fold improvement) | + (key: + indicating 1- to 5-fold improvement compared to DmAMP1; ++ indicating >5- to 10-fold improvement; +++ indicating >10-fold improvement) |
| NLCEKASKTWTGNCGNTKHCDTQCKNWEGAKHGACHKRNGKWKCFCYFNC (Defensin like) [L9-45] | + (key: + indicating 1- to 5-fold improvement compared to DmAMP1; ++ indicating >5- to 10-fold improvement; +++ indicating >10-fold improvement) | + (key: + indicating 1- to 5-fold improvement compared to DmAMP1; ++ indicating >5- to 10-fold improvement; +++ indicating >10-fold improvement) | + (key: + indicating 1- to 5-fold improvement compared to DmAMP1; ++ indicating >5- to 10-fold improvement; +++ indicating >10-fold improvement) |
| DGVKLCERASQTWTGHCGNTKHCDNQCRSWEGAAHGACHKRSGKWKCFCYFNC (Defensin like) [L7-82] | ++ (key: + indicating 1- to 5-fold improvement compared to DmAMP1; ++ indicating >5- to 10-fold improvement; +++ indicating >10-fold improvement) | + (key: + indicating 1- to 5-fold improvement compared to DmAMP1; ++ indicating >5- to 10-fold improvement; +++ indicating >10-fold improvement) | +++ (key: + indicating 1- to 5-fold improvement compared to DmAMP1; ++ indicating >5- to 10-fold improvement; +++ indicating >10-fold improvement) |
| NLCERASKTWTGNCGNTKHCDNQCKSWEGAAHGACHVRNGKHKCFCYFNC (Defensin like) [L5-24] | +++ (key: + indicating 1- to 5-fold improvement compared to DmAMP1; ++ indicating >5- to 10-fold improvement; +++ indicating >10-fold improvement) | ++ (key: + indicating 1- to 5-fold improvement compared to DmAMP1; ++ indicating >5- to 10-fold improvement; +++ indicating >10-fold improvement) | + (key: + indicating 1- to 5-fold improvement compared to DmAMP1; ++ indicating >5- to 10-fold improvement; +++ indicating >10-fold improvement) |
| NLCERASKTWSGNCGNTKHCDNQCRSWEGAKHGACHVRSGKHKCFCYFNC (Defensin like) [L9-16] | +++ (key: + indicating 1- to 5-fold improvement compared to DmAMP1; ++ indicating >5- to 10-fold improvement; +++ indicating >10-fold improvement) | ++ (key: + indicating 1- to 5-fold improvement compared to DmAMP1; ++ indicating >5- to 10-fold improvement; +++ indicating >10-fold improvement) | + (key: + indicating 1- to 5-fold improvement compared to DmAMP1; ++ indicating >5- to 10-fold improvement; +++ indicating >10-fold improvement) |
| NLCERASKTWSGNCGNTKHCDTQCRNWEGAAHGACHVRNGKHKCFCYFNC (NLCERASKTWSGNCGNTKHCDTQCKNWEGAAHGACHVRNGKHKCFCYFNC; Defensin like) [L6-57] | +++ (key: + indicating 1- to 5-fold improvement compared to DmAMP1; ++ indicating >5- to 10-fold improvement; +++ indicating >10-fold improvement) | + (key: + indicating 1- to 5-fold improvement compared to DmAMP1; ++ indicating >5- to 10-fold improvement; +++ indicating >10-fold improvement) | ++ (key: + indicating 1- to 5-fold improvement compared to DmAMP1; ++ indicating >5- to 10-fold improvement; +++ indicating >10-fold improvement) |
| NLCERASKTWSGNCGNTKHCDTQCRNWEGAKHGACHKRNGKWKCFCYFNC (Defensin like) [L9-32] | ++ (key: + indicating 1- to 5-fold improvement compared to DmAMP1; ++ indicating >5- to 10-fold improvement; +++ indicating >10-fold improvement) | + (key: + indicating 1- to 5-fold improvement compared to DmAMP1; ++ indicating >5- to 10-fold improvement; +++ indicating >10-fold improvement) | + (key: + indicating 1- to 5-fold improvement compared to DmAMP1; ++ indicating >5- to 10-fold improvement; +++ indicating >10-fold improvement) |
| NLCERASKTWSGNCGNTKHCDNQCRNWEGAKHGACHVRNGKWKCFCYFNC [L6-40] (Defensin like) | +++ (key: + indicating 1- to 5-fold improvement compared to DmAMP1; ++ indicating >5- to 10-fold improvement; +++ indicating >10-fold improvement) | +++ (key: + indicating 1- to 5-fold improvement compared to DmAMP1; ++ indicating >5- to 10-fold improvement; +++ indicating >10-fold improvement) | + (key: + indicating 1- to 5-fold improvement compared to DmAMP1; ++ indicating >5- to 10-fold improvement; +++ indicating >10-fold improvement) |
| NLCERASKTWSGNCGNTKHCDTQCRNWEGAKHGACHVRSGKHKCFCYFNC (Defensin like) [L9-27] | ++ (key: + indicating 1- to 5-fold improvement compared to DmAMP1; ++ indicating >5- to 10-fold improvement; +++ indicating >10-fold improvement) | ++ (key: + indicating 1- to 5-fold improvement compared to DmAMP1; ++ indicating >5- to 10-fold improvement; +++ indicating >10-fold improvement) | ++ (key: + indicating 1- to 5-fold improvement compared to DmAMP1; ++ indicating >5- to 10-fold improvement; +++ indicating >10-fold improvement) |
| NLCERASKTWSGNCGNTKHCDTQCRSWEGAAHGACHKRNGKWKCFCYFNC (Defensin like) [L9-14] | ++ (key: + indicating 1- to 5-fold improvement compared to DmAMP1; ++ indicating >5- to 10-fold improvement; +++ indicating >10-fold improvement) | + (key: + indicating 1- to 5-fold improvement compared to DmAMP1; ++ indicating >5- to 10-fold improvement; +++ indicating >10-fold improvement) | + (key: + indicating 1- to 5-fold improvement compared to DmAMP1; ++ indicating >5- to 10-fold improvement; +++ indicating >10-fold improvement) |
| NLCEKASKTWTGNCGNTKHCDNQCRNWEGAKHGACHVRSGKHKCFCYFNC (Defensin like) [L9-22] | +++ (key: + indicating 1- to 5-fold improvement compared to DmAMP1; ++ indicating >5- to 10-fold improvement; +++ indicating >10-fold improvement) | +++ (key: + indicating 1- to 5-fold improvement compared to DmAMP1; ++ indicating >5- to 10-fold improvement; +++ indicating >10-fold improvement) | + (key: + indicating 1- to 5-fold improvement compared to DmAMP1; ++ indicating >5- to 10-fold improvement; +++ indicating >10-fold improvement) |
| NLCEKASKTWTGNCGNTKHCDNQCRNWEGAAHGACHKRNGKWKCFCYFNC (Defensin like) [L3-71] | +++ (key: + indicating 1- to 5-fold improvement compared to DmAMP1; ++ indicating >5- to 10-fold improvement; +++ indicating >10-fold improvement) | +++ (key: + indicating 1- to 5-fold improvement compared to DmAMP1; ++ indicating >5- to 10-fold improvement; +++ indicating >10-fold improvement) | +++ (key: + indicating 1- to 5-fold improvement compared to DmAMP1; ++ indicating >5- to 10-fold improvement; +++ indicating >10-fold improvement) |
